From the supplement of paper PMC10307832

How the values were obtained:
Assay in all cases: relative viability (nuclei count vs DMSO), 5 days (fraction); higher = more cells survive
NCI-H3122 = test system: NCI-H3122
Summary of the method: (§1)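 Cells from lung cancer lines were seeded into 1536-well plates and, one day later, dosed by pin tool. Treatments were either a single drug or a fixed dose of an anchor drug with five library-drug doses (not always all listed) in √10 steps. After 5 days, nuclei were stained in a one-step fixation (final 0.05% Triton X-100, 1% formaldehyde, 1 ug/ml Hoechst) and counted on 4× images, and relative viability is the treated-to-vehicle nuclei ratio, as the median of duplicate plates.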

NCI-H1666 = test system: NCI-H1666
Summary of the method: as §1

LXF-289 = test system: LXF-289
Summary of the method: as §1

NCI-H1915 = test system: NCI-H1915
Summary of the method: as §1

NCI-H322M = test system: NCI-H322M
Summary of the method: as §1

NCI-H358 = test system: NCI-H358
Summary of the method: as §1

HCC-15 = test system: HCC-15
Summary of the method: as §1

NCI-H1975 = test system: NCI-H1975
Summary of the method: as §1

EMC-BAC-2 = test system: EMC-BAC-2
Summary of the method: as §1

EPLC-272H = test system: EPLC-272H
Summary of the method: as §1

HOP-62 = test system: HOP-62
Summary of the method: as §1

ABC-1 = test system: ABC-1
Summary of the method: as §1

NCI-H1993 = test system: NCI-H1993
Summary of the method: as §1

CAL-12T = test system: CAL-12T
Summary of the method: as §1

COR-L 105 = test system: COR-L 105
Summary of the method: as §1

NCI-H2085 = test system: NCI-H2085
Summary of the method: as §1

NCI-H2023 = test system: NCI-H2023
Summary of the method: as §1

NCI-H2126 = test system: NCI-H2126
Summary of the method: as §1

NCI-H1755 = test system: NCI-H1755
Summary of the method: as §1

UMC-11 = test system: UMC-11
Summary of the method: as §1

HCC-78 = test system: HCC-78
Summary of the method: as §1

SMILES: C=C1C(=O)O[C@@H](CCCCCCCC)[C@@H]1C(=O)O [C-75] + CS(=O)(=O)CCNCc1ccc(-c2ccc3ncnc(Nc4ccc(OCc5cccc(F)c5)c(Cl)c4)c3c2)o1 [Lapatinib] (partner 2 µM)
- relative viability (NCI-H3122; first compound 0.08 µM): 1.03
- relative viability (NCI-H3122; first compound 0.253 µM): 1.02
- relative viability (NCI-H3122; first compound 0.8 µM): 0.997
- relative viability (NCI-H3122; first compound 8 µM): 1.02
- relative viability (NCI-H1666; first compound 0.08 µM): 0.668
- relative viability (NCI-H1666; first compound 0.253 µM): 0.872
- relative viability (NCI-H1666; first compound 0.8 µM): 0.54
- relative viability (NCI-H1666; first compound 2.53 µM): 0.549
- relative viability (NCI-H1666; first compound 8 µM): 0.471
- relative viability (LXF-289; first compound 0.08 µM): 0.842
- relative viability (LXF-289; first compound 0.253 µM): 0.872
- relative viability (LXF-289; first compound 0.8 µM): 0.895
- relative viability (LXF-289; first compound 2.53 µM): 0.925
- relative viability (LXF-289; first compound 8 µM): 0.908
- relative viability (NCI-H1915; first compound 0.08 µM): 0.952
- relative viability (NCI-H1915; first compound 0.253 µM): 0.945
- relative viability (NCI-H1915; first compound 0.8 µM): 0.89
- relative viability (NCI-H1915; first compound 2.53 µM): 0.917
- relative viability (NCI-H1915; first compound 8 µM): 0.909
- relative viability (NCI-H322M; first compound 0.08 µM): 0.597
- relative viability (NCI-H322M; first compound 0.253 µM): 0.744
- relative viability (NCI-H322M; first compound 0.8 µM): 0.59
- relative viability (NCI-H322M; first compound 2.53 µM): 0.568
- relative viability (NCI-H322M; first compound 8 µM): 0.629
- relative viability (NCI-H358; first compound 0.08 µM): 0.588
- relative viability (NCI-H358; first compound 0.253 µM): 0.434
- relative viability (NCI-H358; first compound 0.8 µM): 0.383
- relative viability (NCI-H358; first compound 2.53 µM): 0.458
- relative viability (NCI-H358; first compound 8 µM): 0.599
- relative viability (HCC-15; first compound 0.08 µM): 0.838
- relative viability (HCC-15; first compound 0.253 µM): 0.808
- relative viability (HCC-15; first compound 0.8 µM): 0.878
- relative viability (HCC-15; first compound 2.53 µM): 0.839
- relative viability (HCC-15; first compound 8 µM): 0.894
- relative viability (NCI-H1975; first compound 0.08 µM): 0.839
- relative viability (NCI-H1975; first compound 0.253 µM): 1.04
- relative viability (NCI-H1975; first compound 0.8 µM): 0.76
- relative viability (NCI-H1975; first compound 2.53 µM): 0.879
- relative viability (NCI-H1975; first compound 8 µM): 0.895
- relative viability (EMC-BAC-2; first compound 0.08 µM): 0.897
- relative viability (EMC-BAC-2; first compound 0.253 µM): 0.85
- relative viability (EMC-BAC-2; first compound 0.8 µM): 0.882
- relative viability (EMC-BAC-2; first compound 2.53 µM): 0.721
- relative viability (EMC-BAC-2; first compound 8 µM): 0.998
- relative viability (EPLC-272H; first compound 0.08 µM): 0.974
- relative viability (EPLC-272H; first compound 0.253 µM): 0.805
- relative viability (EPLC-272H; first compound 0.8 µM): 1.01
- relative viability (EPLC-272H; first compound 2.53 µM): 0.592
- relative viability (EPLC-272H; first compound 8 µM): 0.789
- relative viability (HOP-62; first compound 0.08 µM): 1.07
- relative viability (HOP-62; first compound 0.253 µM): 1.09
- relative viability (HOP-62; first compound 0.8 µM): 0.955
- relative viability (HOP-62; first compound 2.53 µM): 0.713
- relative viability (HOP-62; first compound 8 µM): 0.817
- relative viability (ABC-1; first compound 0.08 µM): 1.1
- relative viability (ABC-1; first compound 0.253 µM): 1.33
- relative viability (ABC-1; first compound 0.8 µM): 1.17
- relative viability (ABC-1; first compound 2.53 µM): 0.981
- relative viability (ABC-1; first compound 8 µM): 0.929
- relative viability (NCI-H1993; first compound 0.08 µM): 0.796
- relative viability (NCI-H1993; first compound 0.253 µM): 0.825
- relative viability (NCI-H1993; first compound 0.8 µM): 0.807
- relative viability (NCI-H1993; first compound 2.53 µM): 0.763
- relative viability (NCI-H1993; first compound 8 µM): 0.667
- relative viability (CAL-12T; first compound 0.08 µM): 0.673
- relative viability (CAL-12T; first compound 0.253 µM): 0.863
- relative viability (CAL-12T; first compound 0.8 µM): 0.492
- relative viability (CAL-12T; first compound 2.53 µM): 0.604
- relative viability (CAL-12T; first compound 8 µM): 0.765
- relative viability (COR-L 105; first compound 0.08 µM): 0.299
- relative viability (COR-L 105; first compound 0.253 µM): 0.315
- relative viability (COR-L 105; first compound 0.8 µM): 0.374
- relative viability (COR-L 105; first compound 2.53 µM): 0.309
- relative viability (COR-L 105; first compound 8 µM): 0.414
- relative viability (NCI-H2085; first compound 0.08 µM): 0.802
- relative viability (NCI-H2085; first compound 0.253 µM): 0.867
- relative viability (NCI-H2085; first compound 0.8 µM): 0.679
- relative viability (NCI-H2085; first compound 2.53 µM): 0.671
- relative viability (NCI-H2085; first compound 8 µM): 0.769
- relative viability (NCI-H2023; first compound 0.08 µM): 0.963
- relative viability (NCI-H2023; first compound 0.253 µM): 0.956
- relative viability (NCI-H2023; first compound 0.8 µM): 0.737
- relative viability (NCI-H2023; first compound 2.53 µM): 0.691
- relative viability (NCI-H2023; first compound 8 µM): 0.653
- relative viability (NCI-H2126; first compound 0.08 µM): 0.774
- relative viability (NCI-H2126; first compound 0.253 µM): 0.914
- relative viability (NCI-H2126; first compound 0.8 µM): 0.728
- relative viability (NCI-H2126; first compound 2.53 µM): 0.62
- relative viability (NCI-H2126; first compound 8 µM): 0.758
- relative viability (NCI-H1755; first compound 0.08 µM): 1.01
- relative viability (NCI-H1755; first compound 0.253 µM): 0.946
- relative viability (NCI-H1755; first compound 0.8 µM): 0.958
- relative viability (NCI-H1755; first compound 2.53 µM): 0.743
- relative viability (NCI-H1755; first compound 8 µM): 1.06
- relative viability (UMC-11; first compound 0.08 µM): 1.01
- relative viability (UMC-11; first compound 0.253 µM): 1.08
- relative viability (UMC-11; first compound 0.8 µM): 0.764
- relative viability (UMC-11; first compound 2.53 µM): 0.795
- relative viability (UMC-11; first compound 8 µM): 0.655
- relative viability (HCC-78; first compound 0.08 µM): 1.05
- relative viability (HCC-78; first compound 0.253 µM): 0.6
- relative viability (HCC-78; first compound 0.8 µM): 0.464
- relative viability (HCC-78; first compound 2.53 µM): 0.348
- relative viability (HCC-78; first compound 8 µM): 0.756
